Measured values as given in US7928098B2, “Therapeutic and/or preventive agents for a sleep disorder” (Kyowa Hakko Kirin Co., Ltd., priority 2005, dated 2011).

Columns and labels:
[1] = tested on: ddY male mice; assay: Effect on pentobarbital sodium-induced sleeping time (loss of righting reflex); format: in vivo; conditions: test compound 10 mg/kg p.o. one hour before pentobarbital-Na 25 mg/kg s.c.
Experimental: The test was conducted to examine influence of Compound (I) of the present invention on pentobarbital sodium-induced sleeping time, according to the method of Iyakuhin no Kaihatsu, Vol. 9, Iyakuhin no Tansaku I, “antihypnotic”, p. 220-226, Hirokawa Shoten.
For the test, ddY male mice (19-21 g body weight; Japan SLC, Inc.) were used. All test compounds were used by suspending in distilled water (Otsuka Pharmaceutical Factory, Inc.) containing 0.5 volume/weight % methylcellulose (0.5% MC: Wako Pure Chemical Industries, Ltd.). A volume of 0.1 mL was administered per 10 g body weight of mice.
Groups of seven mice were used. To the control groups were orally administrated 0.5% MC, whereas a suspension of the test compound was orally administered to the test compound administered groups. One hour after the administration, pentobarbital sodium (pentobarbital-Na: Tokyo Chemical Industry Co., Ltd., 25 mg/kg) was administered subcutaneously. Mouse placed in a recumbent position, the mouse immediately returns to a proper upright position (this is known as righting reflex). However, the administration of pentobarbital sodium eliminated the righting reflex in the control groups. The time period in which the administration of […] eliminated the righting reflex was regarded as a sleeping time. By a measurement of time disappearing righting reflex immediately after the administration, the sleeping time was determined.

[2] = Table 5-1, groups of seven, controls 52.12 ± 5.20 (r5) and 35.56 ± 5.21 (r11)
[3] = Table 5-2, groups of seven, controls 40.00 ± 5.32 (r5) and 45.87 ± 4.17 (r12)

| SMILES | melting point | Sleeping time (min) Mean value ± standard deviation [1, 2] [min] | Sleeping time (min) Mean value ± standard deviation [1, 3] [min] |
| --- | --- | --- | --- |
| O=C(Nc1nc(-c2ccco2)c(-c2ccncc2)s1)c1ccoc1 [Compound 8, N-[4-(2-Furyl)-5-(4-pyridyl)thiazol-2-yl]furan-3-carboxamide] |  | 4.16 ± 4.16 |  |
| O=C(Nc1nc(-c2ccco2)c(-c2ccncc2)s1)c1ccc(Cn2ccnc2)cc1 [Compound 11, N-[4-(2-Furyl)-5-(4-pyridyl)thiazol-2-yl]-4-(imidazole-1-ylmethyl)benzamide] |  | 22.75 ± 6.63 |  |
| O=C(Nc1nc(-c2ccco2)c(C(=O)c2ccc(F)cc2)s1)c1ccncc1 [Compound 78, N-[5-(4-Fluorobenzoyl)-4-(2-furyl)thiazol-2-yl]pyridine-4-carboxamide] |  |  | 8.66 ± 4.67 |
| O=C(Nc1nc(-c2ccco2)c(C(=O)c2ccccn2)s1)c1ccncc1 [Compound 95, N-[4-(2-Furyl)-5-(pyridin-2-ylcarbonyl)thiazol-2-yl]pyridine-4-carboxamide] | 218 to 227 °C | 0.45 ± 0.45 |  |
| O=C(c1ccccn1)c1sc(NC(=O)C2CC2)nc1-c1ccco1 [Compound 99, N-[4-(2-Furyl)-5-(pyridin-2-ylcarbonyl)thiazol-2-yl]cyclopropanecarboxamide] | 191 to 192 °C |  | 0.05 ± 0.02 |
| N#Cc1ccc(C(=O)Nc2nc(-c3ccco3)c(C(=O)c3ccccn3)s2)cc1 [Compound 114, 4-Cyano-N-[4-(2-furyl)-5-(pyridin-2-ylcarbonyl)thiazol-2-yl]benzamide] | 232 to 235 °C |  | 0.63 ± 0.53 |
| Cc1ncc(C(=O)Nc2nc(-c3ccco3)c(C(=O)c3ccccn3)s2)cn1 [Compound 136, N-[4-(2-Furyl)-5-(pyridin-2-ylcarbonyl)thiazol-2-yl]-2-methylpyrimidine-5-carboxamide] | 255 to 265 °C (dec.) | 1.89 ± 1.81 |  |
| O=C(Nc1nc(-c2ccco2)c(C(=O)c2ccccn2)s1)c1ccco1 [Compound 142, N-[4-(2-Furyl)-5-(pyridin-2-ylcarbonyl)thiazol-2-yl]furan-2-carboxamide] | 184 to 185 °C |  | 4.52 ± 4.41 |
| COC(=O)Nc1nc(-c2ccco2)c(C(=O)c2ccccn2)s1 [Compound 157, Methyl N-[4-(2-furyl)-5-(pyridin-2-ylcarbonyl)thiazol-2-yl]carbamate] |  |  | 9.39 ± 5.68 |
| O=C(Nc1nc(-c2ccco2)c(C(=O)C2CCCC2)s1)c1ccncc1 [Compound 336, N-[5-(Cyclopentylcarbonyl)-4-(2-furyl)thiazol-2-yl]pyridine-4-carboxamide] | 168 to 181 °C |  | 1.60 ± 1.56 |
| O=C(Nc1nc(-c2ccco2)c(C(=O)C2CCOCC2)s1)c1ccncc1 [Compound 360, N-[4-(2-Furyl)-5-(tetrahydropyran-4-ylcarbonyl)thiazol-2-yl]pyridine-4-carboxamide] | 202 to 209 °C |  | 0.03 ± 0.02 |
| O=C(Nc1nc(-c2ccco2)c(C(=O)C2CCOCC2)s1)C1CC1 [Compound 361, N-[4-(2-Furyl)-5-(tetrahydropyran-4-ylcarbonyl)thiazol-2-yl]cyclopropanecarboxamide] | 182 to 183 °C | 1.65 ± 1.40 |  |
| Cc1ccc(C(=O)Nc2nc(-c3ccco3)c(C(=O)C3CCOCC3)s2)cn1 [Compound 409, N-[4-(2-Furyl)-5-(tetrahydropyran-4-ylcarbonyl)thiazol-2-yl]-2-methylpyridine-5-carboxamide] |  |  | 0.05 ± 0.05 |
| O=C(CN1CCOCC1)Nc1nc(-c2ccco2)c(C(=O)C2CCOCC2)s1 [Compound 463, N-[4-(2-Furyl)-5-(tetrahydropyran-4-ylcarbonyl)thiazol-2-yl]-2-morpholinoacetamide] |  |  | 0.00 ± 0.00 |
| O=C(Nc1nc(-c2ccco2)c(C(=O)c2ccccc2)s1)c1ccncc1 [Compound 508, N-[5-Benzoyl-4-(2-furyl)thiazol-2-yl]pyridine-4-carboxamide] |  |  | 14.26 ± 4.35 |

Further lines, with some results ahead:

| melting point | SMILES | Sleeping time (min) Mean value ± standard deviation [1, 2] [min] | Sleeping time (min) Mean value ± standard deviation [1, 3] [min] |
| --- | --- | --- | --- |
| 190 to 192 °C | Cc1ccc(C(=O)Nc2nc(-c3ccco3)c(C(=O)C3CCOCC3)s2)cc1 [Compound 365, N-[4-(2-Furyl)-5-(tetrahydropyran-4-ylcarbonyl)thiazol-2-yl]-4-methylbenzamide] |  | 0.05 ± 0.05 |
| 198 to 200 °C | COc1cccc(C(=O)Nc2nc(-c3ccco3)c(C(=O)C3CCOCC3)s2)c1 [Compound 367, N-[4-(2-Furyl)-5-(tetrahydropyran-4-ylcarbonyl)thiazol-2-yl]-3-methoxybenzamide] | 0.10 ± 0.10 |  |
| 131 to 132 °C | O=C(Nc1nc(-c2ccco2)c(C(=O)C2CCOCC2)s1)c1ccc(F)cc1 [Compound 373, 4-Fluoro-N-[4-(2-furyl)-5-(tetrahydropyran-4-ylcarbonyl)-thiazol-2-yl]benzamide] |  | 0.03 ± 0.02 |
| 204 to 206 °C | O=C(Nc1nc(-c2ccco2)c(C(=O)C2CCOCC2)s1)c1ccc(Cl)cc1 [Compound 376, 4-Chloro-N-[4-(2-furyl)-5-(tetrahydropyran-4-ylcarbonyl)-thiazol-2-yl]benzamide] | 0.00 ± 0.00 |  |
| 233 to 235 °C | O=C(Nc1nc(-c2ccco2)c(C(=O)C2CCOCC2)s1)c1ccc(Cl)nc1 [Compound 407, 2-Chloro-N-[4-(2-furyl)-5-(tetrahydropyran-4-ylcarbonyl)-thiazol-2-yl]pyridine-5-carboxamide] | 0.00 ± 0.00 |  |
| 196 to 198 °C | O=C(Nc1nc(-c2ccco2)c(C(=O)C2CCOCC2)s1)c1ccco1 [Compound 416, N-[4-(2-Furyl)-5-(tetrahydropyran-4-ylcarbonyl)thiazol-2-yl]furan-2-carboxamide] | 0.06 ± 0.06 |  |
| 222 to 223 °C | N#Cc1ccc(C(=O)Nc2nc(-c3ccco3)c(C(=O)C3CCOCC3)s2)o1 [Compound 420, 5-Cyano-N-[4-(2-furyl)-5-(tetrahydropyran-4-ylcarbonyl)-thiazol-2-yl]furan-2-carboxamide] | 0.00 ± 0.00 |  |
